Data: PMC5415745, “Drug-transporter mediated interactions between anthelminthic and antiretroviral drugs across the Caco-2 cell monolayers” (BMC Pharmacology & Toxicology, 2017)
Where “and” joins values, the source holds several entries; their conditions need not be identical. Equal values may be shown once. Entries after “also recorded” stand apart in the source; their conditions may differ.

Columns and labels:
[1] = system: Caco-2 cell monolayers; assay: Bidirectional (AP→BL, BL→AP) drug transport across Caco-2 cell monolayers in transwells: cumulative transport, Papp, efflux ratio; HPLC or radiolabeled assay
Procedure: (§1) The monolayers used were of between passage 20 and 65 after 15 days of growth. Each experiment was performed in duplicate using two six well-transwell culture plates. The cells were trypsinized as described earlier, and after centrifugation the pellet re-suspended in fresh DMEM (+15%), and the cells counted using a cell counter. A volume of DMEM was added enough to give a cell count of 2 × 10^6 cells per ml, and cells were seeded on the transwell culture plates at a density of 2 × 10^4 cells/cm^2 (~ 100,000 cells per well, since insert membrane growth area = 4.67 cm^2). The plates were then incubated at 37°C and 10% CO2 in a humidified chamber and the media changed every 2-3 days, by aspirating using a suction pump and replacing with an equal volume of DMEM. Transport experiments were conducted 15 to 20 days after seeding. The TEER across the cell monolayers was monitored using a Millicell-ERS in order to assess cell monolayer integrity and the monolayers considered appropriate for the experiment when the TEER values were typically above 500 cm^2 [49, 70].
(§2) Prior to transport studies, each monolayer was washed and equilibrated with the transport medium (DMEM without FBS). The medium was removed from all AP and BL compartments of the transwells and replaced with 2 ml of the transport medium (DMEM alone), to both compartments and equilibrated for 1 h (37°C, 10% CO2 incubator), after which the TEER was re-assessed and labeled. The medium was then removed from both compartments and replaced with an equal volume of pre-warmed medium containing the compound of interest at the appropriate concentration. For the AP → BL transport, 2 ml of medium containing the desired drug was placed in the AP chamber and 2 ml of the medium alone in the BL chamber, whereas 2 ml of medium containing the drug was placed in the BL and 2 ml of medium on the AP chamber for the BL → AP transport [71]. The effect of the second drug was then assessed by adding the medium containing the original drug and the drug under study to the AP side for AP → BL transport with the medium containing the original drug alone in the BL chamber, and vice-versa for the BL → AP transport. Transport in each direction was done in triplicate. The transwell plates were then incubated (37°C, 10% CO2 incubator), and 100μl of the samples from the AP and BL compartments were taken at 60, 120, 180 and 240 min and quantified either by HPLC method described earlier [45], or by the use of a liquid scintillating counter depending on the drug under study. The HPLC method involved liquid - liquid extraction followed by ultra-high performance liquid chromatography using a Hypurity C18 column and ultraviolet detection set at a wavelength of 215 nm. The mobile phase consisted of ammonium formate, acetonitrile and methanol (57:38:5 v/v). Separation was facilitated via isocratic elution at a flow rate of 1.5 ml/min. For HPLC assays, the concentration used for each drug was 20μg/ml. The concentrations that offered the best detection were selected for radiolabeled assay. […] The integrity of the CCM during the experiment was monitored by measuring the TEER at the beginning (0 min) and the end of the experiment (240min).
(§3) The results were expressed as apparent permeability coefficient (Papp, unit: cms^-1), the amount of compound transported per second. Papp values were calculated for both AP to BL (PappAtoB), and BL to AP (PappBtoA) movement of the compound. Papp was calculated using the following equation [52, 72]: • Papp (cm/s) = (dQ/dt) x (1/(ACO) • dQ/dt = Steady-state flux (dpm s^-1 or μmol s^-1) • A = Surface area of the filter (cm^2) • CO = Initial concentration in the donor chamber (dpm litre ^-1 or μM)
(§4) The quotient of secretory permeability and absorptive permeability (PappBL-AP/PappAP-BL) constitutes the efflux ratio, while the reverse (PappAP-BL/PappBL-AP) is the uptake ratio [71].

[2] = as above; conditions: human
Procedure: as §1, §2, §3, §4

[3] = 120 min, individual samples 1-3
[4] = 180 min, individual samples 1-3
[5] = 240 min, individual samples 1-3
[6] = labelled drug is the interacting drug
[7] = mean (n=3) after 60 min, drug A alone, or label 'A + B' = transport of A in presence of interacting drug B, concentrations per Table 1
[8] = samples after 60min, individual samples 1-3
[9] = IVM alone (SQV experiment), 60 min, mean
[10] = IVM alone (SQV experiment), 120 min, mean
[11] = IVM alone (SQV experiment), 120 min, samples 1-3
[12] = IVM alone (SQV experiment), 180 min, mean
[13] = IVM alone (SQV experiment), 180 min, samples 1-3
[14] = IVM alone (SQV experiment), 240 min, mean
[15] = IVM alone (SQV experiment), 240 min, samples 1-3
[16] = IVM alone (SQV experiment), after 60min, individual samples
[17] = IVM alone (SQV experiment), after 60min, mean
[18] = IVM alone, 60 min, individual experiments 1-3
[19] = IVM alone, 120 min, individual experiments 1-3
[20] = IVM alone, 180 min, individual experiments 1-3
[21] = IVM alone, 240 min, individual experiments 1-3
[22] = [3H] IVM alone, 60 min, individual experiments 1-3
[23] = [3H] IVM alone, 60 min, mean, n=3
[24] = [3H] IVM alone, 120 min, individual experiments 1-3
[25] = [3H] IVM alone, 120 min, mean, n=3
[26] = [3H] IVM alone, 180 min, individual experiments 1-3
[27] = [3H] IVM alone, 180 min, mean, n=3
[28] = [3H] IVM alone, 240 min, individual experiments 1-3
[29] = [3H] IVM alone, 240 min, mean, n=3
[30] = [3H] IVM alone, after 60 min, mean, n=3
[31] = [3H] IVM alone, after 60 min, samples 1-3
[32] = samples after 60min, individual samples 1-3, IVM alone
[33] = samples after 60min, mean n=3, IVM alone

Structure (SMILES): O=C1Nc2ccc(Cl)cc2[C@@](C#CC2CC2)(C(F)(F)F)O1 [EFV, efavirenz]
- Apical to basal transport (cumulative, receiver) ([1]; 60 min, individual samples 1-3): 0.31 pmoles (2×) and 0.32 pmoles
- Basal to apical transport (cumulative, receiver) ([1]; 60 min, individual samples 1-3): 0.30 pmoles (2×) and 0.25 pmoles
- Apical to basal transport (cumulative, receiver), Mean ([1]; 60 min, mean n=3): 0.32 pmol
- Basal to apical transport (cumulative, receiver), Mean ([1]; 60 min, mean n=3): 0.28 pmol
- Apical to basal transport (cumulative, receiver) [1, 3]: 0.61 pmol and 0.54 pmol and 0.55 pmol
- Basal to apical transport (cumulative, receiver) [1, 3]: 0.53 pmol and 0.50 pmol and 0.57 pmol
- Apical to basal transport (cumulative, receiver), Mean ([1]; 120 min, mean n=3): 0.56 pmol
- Basal to apical transport (cumulative, receiver), Mean ([1]; 120 min, mean n=3): 0.53 pmol
- Apical to basal transport (cumulative, receiver) [1, 4]: 0.67 pmol and 0.70 pmol and 0.71 pmol
- Basal to apical transport (cumulative, receiver) [1, 4]: 0.69 pmol and 0.65 pmol and 0.70 pmol
- Apical to basal transport (cumulative, receiver), Mean ([1]; 180 min, mean n=3): 0.69 pmol
- Basal to apical transport (cumulative, receiver), Mean ([1]; 180 min, mean n=3): 0.68 pmol
- Apical to basal transport (cumulative, receiver) [1, 5]: 0.78 pmol and 0.86 pmol and 0.82 pmol
- Basal to apical transport (cumulative, receiver) [1, 5]: 0.86 pmol and 0.78 pmol and 0.84 pmol
- Apical to basal transport (cumulative, receiver), Mean ([1]; 240 min, mean n=3): 0.82 pmol
- Basal to apical transport (cumulative, receiver), Mean ([1]; 240 min, mean n=3): 0.83 pmol
- Effect on the transport of PZQ [1, 6]: did not affect
- Papp AP → BL [1, 7]: 16.5 ×10⁻⁶ cm/s
- Papp BL → AP [1, 7]: 10.8 ×10⁻⁶ cm/s
- PappAB Papp [1, 8]: 15.9 ×10⁻⁶ cm/s and 13.5 ×10⁻⁶ cm/s
- PappBA Papp [1, 8]: 9.29 ×10⁻⁶ cm/s and 9.67 ×10⁻⁶ cm/s
- Papp A→B at 60 min ([2]; Caco-2, Papp AP → BL, mean (n=3) after 60 min, drug A alone, or label 'A + B' = transport of A in presence of interacting drug B, concentrations per Table 1): 16.5 ×10⁻⁶ cm/s
- Papp B→A at 60 min ([2]; Caco-2, Papp BL → AP, mean (n=3) after 60 min, drug A alone, or label 'A + B' = transport of A in presence of interacting drug B, concentrations per Table 1): 10.8 ×10⁻⁶ cm/s
- Papp A→B at 60 min ([2]; Caco-2, PappAB, Papp, samples after 60min, individual samples 1-3): 20 ×10⁻⁶ cm/s
- Papp B→A at 60 min ([2]; Caco-2, PappBA, Papp, samples after 60min, individual samples 1-3): 13.4 ×10⁻⁶ cm/s

Structure (SMILES): CC[C@H](C)[C@H]1O[C@]2(CC[C@@H]1C)C[C@@H]1C[C@@H](C/C=C(\C)[C@@H](O[C@H]3C[C@H](OC)[C@@H](O[C@H]4C[C@H](OC)[C@@H](O)[C@H](C)O4)[C@H](C)O3)[C@@H](C)/C=C/C=C3\CO[C@@H]4[C@H](O)C(C)=C[C@@H](C(=O)O1)[C@]34O)O2 [IVM, ivermectin]
- Apical to basal transport (cumulative, receiver) ([1]; 60 min, individual samples 1-3): 0.57 pmol and 0.44 pmol and 1.00 pmol
- Basal to apical transport (cumulative, receiver) ([1]; 60 min, individual samples 1-3): 0.65 pmol and 0.55 pmol and 0.96 pmol
- Apical to basal transport (cumulative, receiver), Mean ([1]; 60 min, mean n=3): 0.67 pmol
- Basal to apical transport (cumulative, receiver), Mean ([1]; 60 min, mean n=3): 0.72 pmol
- Apical to basal transport (cumulative, receiver) [1, 3]: 0.50 pmol and 0.61 pmol and 1.00 pmol
- Basal to apical transport (cumulative, receiver) [1, 3]: 1.34 pmol and 1.05 pmol and 1.67 pmol
- Apical to basal transport (cumulative, receiver), Mean ([1]; 120 min, mean n=3): 0.71 pmol
- Apical to basal transport (cumulative, receiver) [1, 4]: 0.66 pmol and 0.77 pmol and 1.54 pmol
- Basal to apical transport (cumulative, receiver) [1, 4]: 1.45 pmol and 1.96 pmol
- Apical to basal transport (cumulative, receiver), Mean ([1]; 180 min, mean n=3): 0.99 pmol
- Basal to apical transport (cumulative, receiver), Mean ([1]; 180 min, mean n=3): 1.63 pmol
- Apical to basal transport (cumulative, receiver) [1, 5]: 0.96 pmol and 0.81 pmol and 1.30 pmol
- Basal to apical transport (cumulative, receiver) [1, 5]: 2.52 pmol and 1.59 pmol and 2.27 pmol
- Apical to basal transport (cumulative, receiver), Mean ([1]; 240 min, mean n=3): 1.03 pmol
- Basal to apical transport (cumulative, receiver), Mean ([1]; 240 min, mean n=3): 2.13 pmol
- Apical to basal transport Mean [1, 9]: 11.45 fmol
- Basal to apical transport Mean [1, 9]: 11.69 fmol
- Basal to apical transport ([1]; IVM alone (SQV experiment), 60 min, samples 1-3): 12.29 fmol and 9.26 fmol
- Apical to basal transport Mean [1, 10]: 15.92 fmol
- Basal to apical transport Mean [1, 10]: 17.90 fmol
- Apical to basal transport [1, 11]: 14.08 fmol and 21.31 fmol and 12.37 fmol
- Basal to apical transport [1, 11]: 21.06 fmol and 15.84 fmol and 16.78 fmol
- Apical to basal transport Mean [1, 12]: 20.75 fmol
- Basal to apical transport Mean [1, 12]: 25.75 fmol
- Apical to basal transport [1, 13]: 23.29 fmol and 18.34 fmol and 20.63 fmol
- Basal to apical transport [1, 13]: 26.26 fmol
- Apical to basal transport Mean [1, 14]: 25.60 fmol
- Basal to apical transport Mean [1, 14]: 35.30 fmol
- Apical to basal transport [1, 15]: 21.18 fmol and 30.03 fmol and 25.60 fmol
- Basal to apical transport [1, 15]: 45.23 fmol and 24.14 fmol and 36.53 fmol
- Apical to basal transport Conc. Basal [1, 16]: 15.84 fmol and 11.06 fmol and 7.45 fmol
- Basal to apical transport Conc. Apical [1, 16]: 13.53 fmol
- PappAB [1, 16]: 10.74 10^6 cm/s and 7.18 10^6 cm/s and 4.31 10^6 cm/s
- PappBA [1, 16]: 7.36 10^6 cm/s and 5.84 10^6 cm/s and 4.54 10^6 cm/s
- PappAB Mean [1, 17]: 7.41 10^6 cm/s
- PappBA Mean [1, 17]: 5.92 10^6 cm/s
- Apical to basal transport [1, 18]: 8300 fmol and 7460 fmol and 8350 fmol
- Basal to apical transport [1, 18]: 15750 fmol and 21160 fmol
- Apical to basal transport Mean ([1]; IVM alone, 60 min, mean, n=3): 8040 fmol
- Basal to apical transport Mean ([1]; IVM alone, 60 min, mean, n=3): 17700 fmol
- Apical to basal transport [1, 19]: 17040 fmol and 10980 fmol and 9220 fmol
- Basal to apical transport [1, 19]: 21400 fmol and 27210 fmol and 31370 fmol
- Apical to basal transport Mean ([1]; IVM alone, 120 min, mean, n=3): 12410 fmol
- Basal to apical transport Mean ([1]; IVM alone, 120 min, mean, n=3): 26660 fmol
- Apical to basal transport [1, 20]: 20270 fmol and 13190 fmol and 16360 fmol
- Basal to apical transport [1, 20]: 26810 fmol and 40700 fmol
- Apical to basal transport Mean ([1]; IVM alone, 180 min, mean, n=3): 16610 fmol
- Basal to apical transport Mean ([1]; IVM alone, 180 min, mean, n=3): 31010 fmol
- Apical to basal transport [1, 21]: 16260 fmol and 22170 fmol and 13750 fmol
- Basal to apical transport [1, 21]: 35200 fmol and 45800 fmol
- Apical to basal transport Mean ([1]; IVM alone, 240 min, mean, n=3): 17390 fmol
- Basal to apical transport Mean ([1]; IVM alone, 240 min, mean, n=3): 37700 fmol
- Apical to basal transport [1, 22]: 14.35 fmol and 14.86 fmol and 15.44 fmol
- Basal to apical transport [1, 22]: 12.86 fmol and 12.68 fmol
- Apical to basal transport Mean [1, 23]: 14.88 fmol
- Basal to apical transport Mean [1, 23]: 13.03 fmol
- Apical to basal transport [1, 24]: 20.80 fmol and 20.34 fmol and 21.75 fmol
- Basal to apical transport [1, 24]: 17.34 fmol and 18.56 fmol and 18.52 fmol
- Apical to basal transport Mean [1, 25]: 20.96 fmol
- Basal to apical transport Mean [1, 25]: 18.14 fmol
- Apical to basal transport [1, 26]: 25.72 fmol and 23.95 fmol and 25.43 fmol
- Basal to apical transport [1, 26]: 17.07 fmol and 23.80 fmol and 31.79 fmol
- Apical to basal transport Mean [1, 27]: 25.03 fmol
- Basal to apical transport Mean [1, 27]: 24.22 fmol
- Apical to basal transport [1, 28]: 25.16 fmol and 26.38 fmol and 23.06 fmol
- Basal to apical transport [1, 28]: 22.70 fmol and 28.67 fmol and 34.20 fmol
- Apical to basal transport Mean [1, 29]: 24.86 fmol
- Basal to apical transport Mean [1, 29]: 28.52 fmol
- PappAB Mean [1, 30]: 14.06 10^6 cm/s
- PappBA Mean [1, 30]: 11.32 10^6 cm/s
- Apical to basal transport Conc. Apical [1, 31]: 101.63 fmol and 106.60 fmol and 109.59 fmol
- Basal to apical transport Conc. Apical [1, 31]: 13.56 fmol
- Basal to apical transport Conc. Basal [1, 31]: 110.67 fmol and 126.53 fmol and 111.99 fmol
- PappAB Papp [1, 31]: 16.8 ×10⁻⁶ cm/s and 13.7 ×10⁻⁶ cm/s and 11.7 ×10⁻⁶ cm/s
- PappBA Papp [1, 31]: 14.6 ×10⁻⁶ cm/s and 9.96 ×10⁻⁶ cm/s and 9.43 ×10⁻⁶ cm/s
- Effect on the (efflux) transport of SQV [1, 6]: significantly inhibited
- Effect on the efflux of EFV [1, 6]: increased; also recorded: marginally significant increase
- Effect on the efflux transport of LPV [1, 6]: significantly inhibited; also recorded: eightfold inhibition
- Effect on the transport of NVP [1, 6]: did not appear to significantly influence
- PappAB Papp [1, 32]: 7.59 10^9 cm/s and 4.95 10^9 cm/s and 10.26 10^9 cm/s
- PappBA Papp [1, 32]: 10.18 10^9 cm/s and 5.89 10^9 cm/s and 10.76 10^9 cm/s
- PappAB Mean [1, 33]: 7.60 10^9 cm/s
- PappBA Mean [1, 33]: 8.94 10^9 cm/s
